Results: patent US11612643B2, “Col14A1-derived tumor antigen polypeptide and use thereof” (Genoimmune Therapeutics Co., Ltd., priority 2016, dated 2023)

Experiments:
CD8+ T cells [1] = experiment: ELISPOTs detection of IFN-gamma secretion by peptide-specific CD8+ T cells; type: cell-based, human; details: ratio of spot numbers; >2 immunogenic
CD8+ T cells [2] = experiment: as above; type: cell-based, human; details: for Conclusion (immunogenicity): ELISPOTs; for Number of spots in the wild-type peptide group: T cells activated by listed peptide + T2 loaded with wild-type peptide FMVDGSWSI, 20 h
Text: In this example, a ELISPOTs detection kit (Cat. No.: 3420-4AST-10, MABTECH) was used to verify the activation of an immune response of CD8+ T cells by the peptides of the present invention.
Principle of the ELISPOTs detection method is as follows: CD8+ T cells can specifically recognize the complex of HLA-A0201 and a peptide. The population of T cells recognizing the complex of the peptide and HLA-A0201 is varying, depending on the peptide sequence. Since T2 cells express HLA-A0201, CD8+ T cells can specifically recognize the T2 cells loaded with a peptide. After specific recognition of the complex of HLA-A0201 and the peptide, peptide-specific CD8+ T cells can be activated again to secrete IFN-gamma interferon. The IFN-gamma interferon secreted by the activated CD8+ T cells can be captured by antibodies on the ELISPOTs plate. Finally, the enzyme-conjugated antibody that recognizes IFN-gamma can degrade the substrate through the enzyme conjugated thereto and develop color, eventually producing spots. The number of spots represents the number of cells that are activated to secrete IFN-gamma interferon.
The cultured cells from Example 3 were added, along with T2 cells loaded with the mutant peptide […] of the present invention and the wild-type peptide […], respectively, into ELISPOTs plates, and cultured for 20 h, and then a ELISPOTs detection was performed (see the kit instruction). Finally, the spots produced by the ELISPOTs detection were counted.
The peptide was determined to have immunogenicity when the number of spots of the tested peptide/the number of spots of an unrelated peptide>2; that is, if the number of spots caused by the tested peptide is more than twice than that of an unrelated peptide, the tested peptide is determined to have immunogenicity.

T2 cells = experiment: LDH release assay, killing of peptide-loaded T2 target cells by CD8+ T cells; type: cell-based, human; details: T2 loaded with wild-type FMVDGSWSI, 4 h
Protocol: The cells cultured in Example 3 were co-cultured with T2 cells loaded with the mutant peptides of the present invention or the wild-type peptide or without a peptide. A maximum release well, a volume correction well, a medium control well, a spontaneous release well and control wells for example at different effector-to-target ratios (ratios of T cells to T2 cells) were set in this experiment. Three replicate wells were set for each group. After 4 h, 50 μl of the co-culture supernatant was taken out and added to 50 μl of LDH substrate mixture to catalyze the reaction of LDH substrate. Finally, the plates were read at a wavelength of 490 nm, with a reference wavelength of 680 nm, and the killing activity against target cells T2 was calculated based on the control wells.

HLA-A0201 = molecular target: T1, HLA-A0201 (Homo sapiens, UniProt P04439, D140Y/D185E/D98H/E176V/E277Q/G131W/G231S/I119V/I121R/I166T/I218V/L300P/L318F/N151K/N90K/P208A/P217A/Q86G/Q94H/R138H/R169H/T345S); experiment: Affinity verification of the peptides to T2 cells (flow cytometry, FITC anti-HLA-A0201); type: cell-based; details: added peptide 100 μM, FI>1.5 high affinity for HLA-A0201, listed as wild-type peptide
T1 construct: T2 cells (a lymphocyte, tumor cell line, expressing HLA-A0201); host or cells: T2 cells (TAP-deficient T/B lymphocyte hybridoma, HLA-A2 positive)
Protocol: 10 μg/ml of each peptide as described above was added, and human β2 microglobulin (at a final concentration of 3 μg/ml) was added and cultured overnight in an incubator (37° C., 5% CO2). Two replicate wells were set up for each group.
Cells were collected by centrifugation of the cell culture at 200 g for 5 minutes. The collected cells were washed twice with PBS, and then directly incubated with FITC-conjugated anti-HLA-A0201 monoclonal antibody at 4° C. for 30 minutes. The mean fluorescence intensity (MFI) was then detected and analyzed by flow cytometer (BD FACSJazz™) and its software. The fluorescence index (FI) was calculated by using the following formula: FI=[MFIsample−MFIbackground]/MFIbackground;

[3] = effector-to-target ratio (10:1)

Sequence	Fold (tested/wild-type) (CD8+ T cells [1])	Conclusion (immunogenicity) (CD8+ T cells [2])	Number of spots in the wild-type peptide group (CD8+ T cells [2])	killing activity against target cells T2 (T2 cells; effector-to-target ratio (1:1)) [%]	killing activity against target cells T2 (T2 cells; [3]) [%]	FI (fluorescence index) (HLA-A0201)
FLVDGFWSI	11.21	immunogenic	28	2.65	5.53	–
FLVDGFWSL	10.26	immunogenic	30	3.13	6.33	–
FLVDGFWSV	9.71	immunogenic	31	3.26	6.01	–
FMVDGFWSL	8.86	immunogenic	37	3.12	4.91	–
FMVDGFWSV	7.87	immunogenic	41	3.37	5.63	–
FMVDGSWSI [wild-type COL14A1 peptide used as comparator]	–	–	–	–	–	greater than 1.5
